Measured values: ChEMBL document CHEMBL6087458, “The Discovery of a Novel AXL/Triple Angiokinase Inhibitor Based on 6-Chloro-Substituted Indolinone and Side Chain Methyl Substitution Inhibiting Pancreatic Cancer Growth and Metastasis” (J Med Chem, 2025)
Active and inactive are the calls of the source. The calls are words filed in the database; no cut-off is given here.

Tests used:
[1] = tested on: BXPC-3; assay: Effect on E-cadherin expression in TGF-beta induced human BXPC-3 cells at 0.1 to 0.5 uM incubated for 24 hrs by immunofluorescence assay; format: functional, cell-based; conditions: dose 0.1-0.5 µM
[2] = Tmax in Sprague-Dawley rat at 50 mg/kg, po; format: ADME, organism-based; conditions: in vivo
[3] = tested on: MDA-MB-231; assay: Effect on STAT3 level in human MDA-MB-231 cells incubated for 24 to 72 hrs by Western blot analysis; format: functional, cell-based; conditions: time 24-72 hrs
[4] = tested on: BXPC-3; assay: Antitumor activity against human BXPC-3 cells xenografted in mouse assessed as effect on E-cadherin expression in tumor at 25 to 50 mg/kg, po administered for 14 days; format: functional, organism-based; conditions: dose 25-50 mg/kg, time 14.0 day
[5] = Toxicity in mouse implanted with human BXPC-3 cells assessed as body weight loss at 25 to 50 mg/kg, po measured on day 11; format: organism-based; conditions: in vivo, 264 h, dose 25-50 mg/kg, time 11 day
[6] = target: Signal transducer and activator of transcription 3 (Homo sapiens) (UniProt P40763); assay: Inhibition of STAT3 phosphorylation in human MDA-MB-231 cells incubated for 24 to 72 hrs by Western blot analysis; format: cell-based; conditions: dose <= 5.0 µM, time 24-72 hrs
Chain of Signal transducer and activator of transcription 3 (Homo sapiens) (P40763 whole entry): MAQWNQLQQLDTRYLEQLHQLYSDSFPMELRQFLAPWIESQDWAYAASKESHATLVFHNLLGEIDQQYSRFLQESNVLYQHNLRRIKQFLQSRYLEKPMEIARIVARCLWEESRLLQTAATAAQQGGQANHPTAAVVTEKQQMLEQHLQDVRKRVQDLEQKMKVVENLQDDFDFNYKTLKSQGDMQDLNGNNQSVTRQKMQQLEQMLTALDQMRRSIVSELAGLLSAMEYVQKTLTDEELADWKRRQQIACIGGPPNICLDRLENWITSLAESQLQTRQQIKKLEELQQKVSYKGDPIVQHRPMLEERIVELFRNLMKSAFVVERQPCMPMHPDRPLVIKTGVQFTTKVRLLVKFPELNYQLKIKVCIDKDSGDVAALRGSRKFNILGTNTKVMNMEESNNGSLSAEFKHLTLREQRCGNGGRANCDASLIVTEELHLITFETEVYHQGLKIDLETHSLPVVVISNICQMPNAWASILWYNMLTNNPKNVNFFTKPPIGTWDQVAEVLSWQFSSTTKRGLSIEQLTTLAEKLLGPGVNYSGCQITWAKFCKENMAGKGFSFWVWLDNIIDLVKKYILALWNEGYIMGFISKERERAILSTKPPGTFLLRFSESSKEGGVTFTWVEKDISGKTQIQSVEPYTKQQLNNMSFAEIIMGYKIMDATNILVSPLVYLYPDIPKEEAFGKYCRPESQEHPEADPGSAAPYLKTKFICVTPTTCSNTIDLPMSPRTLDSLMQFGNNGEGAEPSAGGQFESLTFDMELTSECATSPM

[7] = tested on: Mitochondrial membrane; assay: Induction of mitochondrial membrane potential in mouse NIH/3T3 cells assessed as increase in green fluorescence intensity incubated for 48 hrs by JC-1 staining based flow cytometry; format: cell membranes
[8] = target: BDNF/NT-3 growth factors receptor (Homo sapiens) (UniProt Q16620); assay: Inhibition of TRKB (unknown origin) by envision reader analysis
Chain of BDNF/NT-3 growth factors receptor (Homo sapiens) (Q16620 32-822 limits assumed): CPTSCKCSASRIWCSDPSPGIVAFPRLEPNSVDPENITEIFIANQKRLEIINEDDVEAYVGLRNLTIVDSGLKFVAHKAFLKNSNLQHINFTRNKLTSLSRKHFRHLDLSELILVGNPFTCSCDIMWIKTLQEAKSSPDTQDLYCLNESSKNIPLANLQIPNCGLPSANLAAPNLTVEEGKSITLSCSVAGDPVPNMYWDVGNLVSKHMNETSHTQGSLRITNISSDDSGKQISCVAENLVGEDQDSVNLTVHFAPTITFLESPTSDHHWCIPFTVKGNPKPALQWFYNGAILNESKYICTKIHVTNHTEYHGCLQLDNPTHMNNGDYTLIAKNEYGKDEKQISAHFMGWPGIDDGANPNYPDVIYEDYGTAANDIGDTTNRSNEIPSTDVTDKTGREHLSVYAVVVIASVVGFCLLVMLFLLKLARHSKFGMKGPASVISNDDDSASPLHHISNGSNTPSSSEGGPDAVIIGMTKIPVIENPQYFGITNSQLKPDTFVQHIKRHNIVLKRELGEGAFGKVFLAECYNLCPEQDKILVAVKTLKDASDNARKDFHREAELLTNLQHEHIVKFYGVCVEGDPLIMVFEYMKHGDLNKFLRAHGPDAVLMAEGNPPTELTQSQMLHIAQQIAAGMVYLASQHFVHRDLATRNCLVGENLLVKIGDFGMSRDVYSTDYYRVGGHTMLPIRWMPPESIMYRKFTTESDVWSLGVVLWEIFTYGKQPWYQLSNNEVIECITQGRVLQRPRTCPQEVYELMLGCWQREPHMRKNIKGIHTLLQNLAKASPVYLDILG

[9] = tested on: HUVEC; assay: Inhibition of cell migration in human HUVEC cells assessed as decrease in migrating cells at 0.5 uM incubated for 24 hrs by wound healing assay; format: functional, cell-based
[10] = tested on: Mitochondrial membrane; assay: Induction of mitochondrial membrane potential depolarization in human MDA-MB-231 cells at 0.2 to 0.5 uM incubated for 24 hrs by JC-1 staining based flow cytometry analysis; format: cell membranes; conditions: dose 0.2-0.5 µM
[11] = tested on: NCI-H1975; assay: cells; conditions: Homo sapiens, NCI-H1975, 72 h
Description: Antiproliferative activity against human NCI-H1975 cells assessed as cell viability incubated for 72 hrs by MTT assay

[12] = Half life in Sprague-Dawley rat at 5 mg/kg, iv; format: ADME, organism-based; conditions: in vivo
[13] = Cytotoxicity against human HUVEC cells assessed as cell viability incubated for 72 hrs by MTT assay; format: toxicity, cell-based
[14] = tested on: BXPC-3; assay: Antitumor activity against human BXPC-3 cells xenografted in mouse assessed as reduction in tumor weight at 25 mg/kg, po administered for 14 days; format: functional; set-up: scale not given: the % may be the effect or the level left; conditions: time 14 day
[15] = tested on: NIH3T3; assay: Anti-fibrotic activity in mouse NIH3T3 cells assessed as reduction in fibronectin expression incubated for 48 hrs by Western blot analysis; format: functional, cell-based
[16] = species on record: Homo sapiens; assay: Inhibition of PDGFR (unknown origin) by envision reader analysis
[17] = Toxicity in mouse implanted with human BXPC-3 cells assessed as heart damage at 50 mg/kg, po by H and E staining based analysis; format: organism-based; conditions: in vivo
[18] = tested on: A549; assay: cells; conditions: Homo sapiens, A549, 72 h
Description: Antiproliferative activity against human A549 cells assessed as cell viability incubated for 72 hrs by MTT assay

[19] = tested on: BXPC-3; assay: Effect on N-cadherin expression in TGF-beta induced human BXPC-3 cells at 0.1 to 0.5 uM incubated for 24 hrs by immunofluorescence assay; format: functional, cell-based; conditions: dose 0.1-0.5 µM
[20] = target: Signal transducer and activator of transcription 3 (Homo sapiens) (UniProt P40763); assay: Inhibition of STAT3 phosphorylation in human BXPC-3 cells incubated for 24 to 72 hrs by Western blot analysis; format: cell-based; conditions: dose <= 5.0 µM, time 24-72 hrs
[21] = tested on: BXPC-3; assay: Antitumor activity against human BXPC-3 cells xenografted in mouse assessed as tumor growth inhibition at 50 mg/kg, po administered for 14 days; format: functional; conditions: BXPC-3, 336 h, time 14 day, read-out: TGI
[22] = tested on: Mitochondrial membrane; assay: Induction of mitochondrial membrane potential depolarization in human BXPC-3 cells at 0.2 to 0.5 uM incubated for 24 hrs by JC-1 staining based flow cytometry analysis; format: cell membranes; conditions: dose 0.2-0.5 µM
[23] = AUC (0 to last) in Sprague-Dawley rat at 50 mg/kg, po; format: ADME, organism-based; conditions: Sprague-Dawley, in vivo
[24] = tested on: BXPC-3; assay: Antitumor activity against human BXPC-3 cells xenografted in mouse assessed as tumor growth inhibition at 25 mg/kg, po administered for 14 days; format: functional; conditions: BXPC-3, 336 h, time 14 day, read-out: TGI
[25] = Antiproliferative activity against human HUVEC cells cultured as 3D tumor spheroids assessed as cell viability incubated for 72 hrs by CCK-8 assay; format: toxicity, cell-based
[26] = tested on: MDA-MB-231; assay: Induction of apoptosis in human MDA-MB-231 cells assessed as decrease in Bcl-2 expression at 0.1 to 1 uM incubated for 24 hrs by Western blot analysis; format: functional, cell-based; conditions: dose 0.1-1 µM
[27] = tested on: BXPC-3; assay: Antitumor activity against human BXPC-3 cells xenografted in mouse assessed as reduction in Ki67 expression in tumor at 25 to 50 mg/kg, po administered for 14 days; format: functional, organism-based; conditions: dose 25-50 mg/kg, time 14.0 day
[28] = tested on: MDA-MB-231; assay: Down regulation of Ki67 expression in human MDA-MB-231 cells by immunofluorescence assay; format: functional, cell-based
[29] = Cytotoxicity against human MCF-10A cells assessed as inhibition of cell growth; format: toxicity, cell-based
[30] = tested on: HUVEC; assay: Inhibition of VEGFR phosphorylation in HUVEC cells at 0.5 to 2 uM incubated for 24 hrs by Western blot assay; format: cell-based; conditions: Homo sapiens, dose 0.5-2 µM
[31] = Antiproliferative activity against mouse NIH/3T3 cells cultured as 3D tumor spheroids assessed as cell viability incubated for 72 hrs by CCK-8 assay; format: toxicity, cell-based, NIH3T3
[32] = tested on: MKN-45; assay: cells; conditions: Homo sapiens, MKN-45, 72 h
Description: Antiproliferative activity against human MKN-45 cells assessed as cell viability incubated for 72 hrs by MTT assay

[33] = Cytotoxicity against human HaCaT cells assessed as inhibition of cell growth; format: toxicity, cell-based
[34] = tested on: MDA-MB-231; assay: Inhibition of colony formation in human MDA-MB-231 cells at 0.5 uM incubated for 72 hrs; format: functional, cell-based
[35] = tested on: BXPC-3; assay: Effect on AXL expression in human BXPC-3 cells; format: functional, cell-based
[36] = Cmax in Sprague-Dawley rat at 50 mg/kg, po; format: ADME, organism-based; conditions: in vivo
[37] = tested on: BXPC-3; assay: Antitumor activity against human BXPC-3 cells xenografted in mouse assessed as reduction in tumor weight at 50 mg/kg, po administered for 14 days; format: functional; set-up: scale not given: the % may be the effect or the level left; conditions: time 14 day
[38] = Toxicity in mouse implanted with human BXPC-3 cells at 25 to 50 mg/kg, po measured on day 11; format: organism-based; conditions: in vivo, 264 h, dose 25-50 mg/kg, time 11 day
[39] = tested on: MDA-MB-231; assay: Effect on N-cadherin expression in TGF-beta induced human MDA-MB-231 cells at 0.1 to 0.5 uM incubated for 24 hrs by immunofluorescence assay; format: functional, cell-based; conditions: dose 0.1-0.5 µM
[40] = target: Serine/threonine-protein kinase SIK2 (Homo sapiens) (UniProt Q9H0K1); assay: Inhibition of QIK (unknown origin) by envision reader analysis
Chain of Serine/threonine-protein kinase SIK2 (Homo sapiens) (Q9H0K1 whole entry, looked up): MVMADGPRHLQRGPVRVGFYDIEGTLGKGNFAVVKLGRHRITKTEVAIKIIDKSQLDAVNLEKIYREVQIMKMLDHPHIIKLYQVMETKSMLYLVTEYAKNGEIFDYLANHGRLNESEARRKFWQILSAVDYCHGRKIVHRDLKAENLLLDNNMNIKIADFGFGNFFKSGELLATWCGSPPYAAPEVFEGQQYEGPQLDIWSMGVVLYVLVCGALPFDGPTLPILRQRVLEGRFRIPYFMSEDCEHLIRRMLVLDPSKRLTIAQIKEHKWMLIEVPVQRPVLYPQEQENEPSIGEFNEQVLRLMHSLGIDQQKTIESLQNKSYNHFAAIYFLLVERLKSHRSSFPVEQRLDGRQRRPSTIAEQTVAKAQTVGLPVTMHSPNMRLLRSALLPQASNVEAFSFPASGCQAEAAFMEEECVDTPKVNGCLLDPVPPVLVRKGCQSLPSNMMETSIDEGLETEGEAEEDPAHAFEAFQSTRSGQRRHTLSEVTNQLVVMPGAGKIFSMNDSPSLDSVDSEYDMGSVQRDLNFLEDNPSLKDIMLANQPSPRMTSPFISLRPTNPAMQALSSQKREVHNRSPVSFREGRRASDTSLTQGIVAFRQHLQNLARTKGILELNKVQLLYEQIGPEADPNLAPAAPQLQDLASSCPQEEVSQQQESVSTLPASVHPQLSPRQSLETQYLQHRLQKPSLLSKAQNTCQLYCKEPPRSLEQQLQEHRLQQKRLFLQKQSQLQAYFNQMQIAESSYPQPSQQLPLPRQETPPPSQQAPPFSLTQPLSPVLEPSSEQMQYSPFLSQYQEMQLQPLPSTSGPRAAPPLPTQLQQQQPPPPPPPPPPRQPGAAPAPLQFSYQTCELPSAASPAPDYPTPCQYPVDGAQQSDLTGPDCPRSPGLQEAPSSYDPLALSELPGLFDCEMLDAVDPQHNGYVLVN

[41] = tested on: BXPC-3; assay: cells; conditions: Homo sapiens, BXPC-3, 72 h
Description: Antiproliferative activity against human BXPC-3 cells assessed as cell viability incubated for 72 hrs by MTT assay

[42] = tested on: HUVEC; assay: Effect on VEGFR expression in HUVEC cells at 0.5 to 2 uM incubated for 24 to 72 hrs by immunofluorescence assay; format: functional, cell-based; conditions: Homo sapiens, dose 0.5-2 µM, time 24-72 hrs
[43] = Toxicity in mouse implanted with human BXPC-3 cells assessed as mortality at 25 to 50 mg/kg, po measured on day 11; format: organism-based; conditions: in vivo, 264 h, dose 25-50 mg/kg, time 11 day

In the case of CCN1CCN(C(C)C(=O)N(C)c2ccc(N/C(=C3\C(=O)Nc4cc(Cl)ccc43)c3ccccc3)cc2)CC1 (racemic), the Activity [1] is reported as “Active”, the Tmax [2] is reported as 8 h and the Activity [3] is reported as “inactive”. The Activity [4] was “Active”, the Activity [5] was “Non-toxic” and the inhibition [6] was “Dose-dependent-effect”. For the same compound, the Activity [7] was “Active”, the inhibition [8] was “Active” and the inhibition [9] was “Active”. For the same compound, the Activity [10] was “Active”, the IC50 [11] was 4380 nM and the half-life [12] was 4.36 h. The IC50 at 72 h [13] was 430 nM, the Activity [14] was 71% and the Activity [15] was “Active”. The inhibition [16] was “Active”, the Activity [17] was “Non-toxic” and the IC50 [18] was 250 nM. For the same compound, the Activity [19] was “Active”, the inhibition [20] was “Dose-dependent-effect” and the inhibition in vivo at 50 mg/kg [21] was 83%. The Activity [22] was “Active”, the AUC(0-t) [23] was 1150 ng·h/mL and the inhibition in vivo at 25 mg/kg [24] was 96.7%. For the same compound, the IC50 at 72 h [25] was 1540 nM, the Activity [26] was “Active” and the AC30 [27] was “Active”. The Activity [28] was “Active”, the IC50 [29] was over 10000 nM and the inhibition [30] was “Active”. For the same compound, the IC50 at 72 h [31] was 2310 nM, the IC50 [32] was 1260 nM and the IC50 [33] was over 10000 nM. For the same compound, the inhibition [34] was “Active”, the Activity [35] was “Active” and the Cmax [36] was 88 ng/mL. For the same compound, the Activity [37] was 56.46%, the Activity [38] was “Non-toxic” and the Activity [39] was “Active”. The inhibition [40] was “Active”, the IC50 [41] was 1010 nM and the Activity [42] was “Active”. The Activity [43] was “Non-toxic”.
